Key:
Assay in all cases: Protein kinase inhibition assay
Type in all cases: biochemical
FAK(h) = FAK(h) (Homo sapiens, UniProt Q05397); settings: read-out: percent residual activity of FAK(h)
Procedure: (§1) Certain compounds were tested for activity in protein kinase inhibition assays. All substrates were dissolved and diluted to working stocks in de-ionized water, apart from histone H1 (10× working stock in 20 mM MOPS pH 7.0), PDKtide (10× working stock in 50 mM Tris pH 7.0) ATF2 (which is typically stored at a 20× working stock in 50 mM Tris pH 7.5, 150 mM NaCl, 0.1 mM EGTA, 0.03% Brij-35, 50% glycerol, 1 mM benzamidine, 0.2 mM PMSF and 0.1% R-mercaptoethanol), KKLNRTLSFAEPG (SEQ ID NO:203) and RRRLSFAEPG (SEQ ID NO:204) (50 mM HEPES pH 7.4) and GGEEEEYFELVKKKK (SEQ ID NO:205) (20 mM MOPS pH 7.0). All kinases were pre-diluted to a 10× working concentration prior to addition into the assay. The composition of the dilution buffer for each kinase is detailed below.

PAK3(h) = PAK3(h) (Homo sapiens, UniProt O75914); settings: read-out: percent residual activity of PAK3(h)
Procedure: as §1

DRAK1(h) = target: T1, DRAK1(h) (Homo sapiens, UniProt Q9UEE5); settings: for remaining activity at 2.5 µM: read-out: percent residual activity of DRAK1(h)
T1 sequence (Q9UEE5 1-414): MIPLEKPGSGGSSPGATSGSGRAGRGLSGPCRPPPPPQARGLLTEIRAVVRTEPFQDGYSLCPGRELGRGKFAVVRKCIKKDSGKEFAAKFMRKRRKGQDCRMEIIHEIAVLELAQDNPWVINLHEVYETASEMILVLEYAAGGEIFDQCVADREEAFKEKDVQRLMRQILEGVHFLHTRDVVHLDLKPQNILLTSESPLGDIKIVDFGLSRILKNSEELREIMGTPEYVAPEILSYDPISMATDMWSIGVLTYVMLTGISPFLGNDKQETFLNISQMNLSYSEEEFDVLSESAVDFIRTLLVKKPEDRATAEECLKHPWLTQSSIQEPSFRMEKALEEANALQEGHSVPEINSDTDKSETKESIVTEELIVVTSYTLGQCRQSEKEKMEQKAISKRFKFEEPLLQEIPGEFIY
Procedure: as §1

EGFR(T790M, L858R)(h) = EGFR(T790M, L858R)(h) (Homo sapiens, UniProt P00533, L858R/T790M); settings: read-out: percent residual activity of EGFR(T790M, L858R)(h)
Procedure: as §1

BrSK1(h) = BrSK1(h) (Homo sapiens, UniProt Q8TDC3); settings: read-out: percent residual activity of BrSK1(h)
Procedure: as §1

SRPK1(h) = SRPK1(h) (Homo sapiens, UniProt Q96SB4); settings: read-out: percent residual activity of SRPK1(h)
Procedure: as §1

SIK(h) = SIK(h) (Homo sapiens, UniProt P57059); settings: read-out: percent residual activity of SIK(h)
Procedure: as §1

EGFR(T790M)(h) = EGFR(T790M)(h) (Homo sapiens, UniProt P00533, T790M); settings: read-out: percent residual activity of EGFR(T790M)(h)
Procedure: as §1

MST3(h) = MST3(h) (Homo sapiens, UniProt Q9Y6E0); settings: read-out: percent residual activity of MST3(h)
Procedure: as §1

STK33(h) = STK33(h) (Homo sapiens, UniProt Q9BYT3); settings: read-out: percent residual activity of STK33(h)
Procedure: as §1

IRAK1(h) = IRAK1(h) (Homo sapiens, UniProt P51617); settings: read-out: percent residual activity of IRAK1(h)
Procedure: as §1

cKit(D816H)(h) = cKit(D816H)(h) (Homo sapiens, UniProt P10721, D816H); settings: read-out: percent residual activity of cKit(D816H)(h)
Procedure: as §1

EphB1(h) = EphB1(h) (Homo sapiens, UniProt P54762); settings: read-out: percent residual activity of EphB1(h)
Procedure: as §1

CaMKIIδ(h) = CaMKIIδ(h) (Homo sapiens, UniProt Q13557); settings: read-out: percent residual activity of CaMKIIδ(h)
Procedure: as §1

GRK5(h) = GRK5(h) (Homo sapiens, UniProt P34947); settings: read-out: percent residual activity of GRK5(h)
Procedure: as §1

MARK1(h) = MARK1(h) (Homo sapiens, UniProt Q9P0L2); settings: read-out: percent residual activity of MARK1(h)
Procedure: as §1

WNK3(h) = WNK3(h) (Homo sapiens, UniProt Q9BYP7); settings: read-out: percent residual activity of WNK3(h)
Procedure: as §1

MRCKα(h) = MRCKα(h) (Homo sapiens, UniProt Q5VT25); settings: read-out: percent residual activity of MRCKα(h)
Procedure: as §1

PASK(h) = PASK(h) (Homo sapiens, UniProt Q96RG2); settings: for remaining activity at 2.5 µM: read-out: percent residual activity of PASK(h)
Procedure: as §1

Rsk1(r) = Rsk1(r) (Rattus norvegicus, UniProt Q63531); settings: read-out: percent residual activity of Rsk1(r)
Procedure: as §1
In a final reaction volume of 25 μl, Rsk1 (r) (5-10 mU) is incubated with 8 mM MOPS pH 7.0, 0.2 mM EDTA, 30 μM KKKNRTLSVA (SEQ ID NO:212), 10 mM MgAcetate and [gamma-33P-ATP] (specific activity approx. 500 cpm/pmol, concentration as required). The reaction is initiated by the addition of the MgATP mix. After incubation for 40 minutes at room temperature, the reaction is stopped by the addition of 5 μl of a 3% phosphoric acid solution. 10 μl of the reaction is then spotted onto a P30 filtermat and washed three times for 5 minutes in 75 mM phosphoric acid and once in methanol prior to drying and scintillation counting.

Chain of PASK(h) (Q96RG2 whole entry): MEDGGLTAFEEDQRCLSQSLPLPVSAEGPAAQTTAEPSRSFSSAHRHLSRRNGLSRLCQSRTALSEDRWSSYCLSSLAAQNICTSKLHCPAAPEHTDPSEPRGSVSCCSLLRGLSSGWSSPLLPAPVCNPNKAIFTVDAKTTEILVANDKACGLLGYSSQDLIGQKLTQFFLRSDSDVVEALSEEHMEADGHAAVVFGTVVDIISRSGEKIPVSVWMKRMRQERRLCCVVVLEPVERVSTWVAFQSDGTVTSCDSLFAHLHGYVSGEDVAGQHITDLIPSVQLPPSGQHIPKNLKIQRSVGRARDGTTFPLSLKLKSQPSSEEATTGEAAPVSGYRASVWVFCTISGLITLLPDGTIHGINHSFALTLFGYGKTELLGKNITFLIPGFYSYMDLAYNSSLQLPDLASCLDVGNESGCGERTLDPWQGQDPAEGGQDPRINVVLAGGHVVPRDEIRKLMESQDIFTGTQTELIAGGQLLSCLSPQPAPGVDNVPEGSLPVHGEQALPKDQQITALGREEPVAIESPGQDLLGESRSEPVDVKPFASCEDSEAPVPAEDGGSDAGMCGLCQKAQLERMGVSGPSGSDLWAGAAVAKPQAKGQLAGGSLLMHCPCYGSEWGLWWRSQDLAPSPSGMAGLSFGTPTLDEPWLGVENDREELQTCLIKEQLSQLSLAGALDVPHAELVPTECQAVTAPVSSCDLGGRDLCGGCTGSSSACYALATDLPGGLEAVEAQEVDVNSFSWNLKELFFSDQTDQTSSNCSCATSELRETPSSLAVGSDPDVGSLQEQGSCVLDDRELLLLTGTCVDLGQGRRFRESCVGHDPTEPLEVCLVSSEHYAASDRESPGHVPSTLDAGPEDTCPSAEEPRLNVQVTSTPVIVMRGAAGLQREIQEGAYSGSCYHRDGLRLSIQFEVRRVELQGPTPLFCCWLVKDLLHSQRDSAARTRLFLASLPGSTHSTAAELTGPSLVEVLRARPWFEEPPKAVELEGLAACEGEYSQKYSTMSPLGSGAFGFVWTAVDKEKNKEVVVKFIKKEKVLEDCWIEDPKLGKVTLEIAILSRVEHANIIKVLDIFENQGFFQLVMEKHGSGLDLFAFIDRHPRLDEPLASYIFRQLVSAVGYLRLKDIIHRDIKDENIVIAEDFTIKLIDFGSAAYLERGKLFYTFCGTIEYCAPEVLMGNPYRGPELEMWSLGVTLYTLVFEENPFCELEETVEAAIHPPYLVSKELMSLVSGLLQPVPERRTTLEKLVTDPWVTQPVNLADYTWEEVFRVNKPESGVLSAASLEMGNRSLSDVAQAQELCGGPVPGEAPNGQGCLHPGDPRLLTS
Chain of Rsk1(r) (Q63531 whole entry): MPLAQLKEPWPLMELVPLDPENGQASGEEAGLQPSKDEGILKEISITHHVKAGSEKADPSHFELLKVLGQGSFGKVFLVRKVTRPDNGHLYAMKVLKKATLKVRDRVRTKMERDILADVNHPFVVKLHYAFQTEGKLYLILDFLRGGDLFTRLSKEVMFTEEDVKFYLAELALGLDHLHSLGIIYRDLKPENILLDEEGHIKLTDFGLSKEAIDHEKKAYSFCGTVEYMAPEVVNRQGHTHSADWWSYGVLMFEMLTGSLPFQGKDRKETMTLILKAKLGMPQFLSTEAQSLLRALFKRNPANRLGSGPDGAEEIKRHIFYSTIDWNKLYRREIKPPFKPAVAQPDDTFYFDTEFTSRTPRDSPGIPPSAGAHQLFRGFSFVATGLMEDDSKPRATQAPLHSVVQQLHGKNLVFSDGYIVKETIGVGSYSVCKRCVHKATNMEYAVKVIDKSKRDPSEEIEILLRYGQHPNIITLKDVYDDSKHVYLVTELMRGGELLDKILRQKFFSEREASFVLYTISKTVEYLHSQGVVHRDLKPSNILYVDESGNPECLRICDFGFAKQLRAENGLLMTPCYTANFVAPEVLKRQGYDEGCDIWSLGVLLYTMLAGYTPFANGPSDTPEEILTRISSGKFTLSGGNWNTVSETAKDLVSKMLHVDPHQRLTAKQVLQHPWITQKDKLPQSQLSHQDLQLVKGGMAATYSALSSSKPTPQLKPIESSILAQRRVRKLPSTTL
Chain of MARK1(h) (Q9P0L2 whole entry): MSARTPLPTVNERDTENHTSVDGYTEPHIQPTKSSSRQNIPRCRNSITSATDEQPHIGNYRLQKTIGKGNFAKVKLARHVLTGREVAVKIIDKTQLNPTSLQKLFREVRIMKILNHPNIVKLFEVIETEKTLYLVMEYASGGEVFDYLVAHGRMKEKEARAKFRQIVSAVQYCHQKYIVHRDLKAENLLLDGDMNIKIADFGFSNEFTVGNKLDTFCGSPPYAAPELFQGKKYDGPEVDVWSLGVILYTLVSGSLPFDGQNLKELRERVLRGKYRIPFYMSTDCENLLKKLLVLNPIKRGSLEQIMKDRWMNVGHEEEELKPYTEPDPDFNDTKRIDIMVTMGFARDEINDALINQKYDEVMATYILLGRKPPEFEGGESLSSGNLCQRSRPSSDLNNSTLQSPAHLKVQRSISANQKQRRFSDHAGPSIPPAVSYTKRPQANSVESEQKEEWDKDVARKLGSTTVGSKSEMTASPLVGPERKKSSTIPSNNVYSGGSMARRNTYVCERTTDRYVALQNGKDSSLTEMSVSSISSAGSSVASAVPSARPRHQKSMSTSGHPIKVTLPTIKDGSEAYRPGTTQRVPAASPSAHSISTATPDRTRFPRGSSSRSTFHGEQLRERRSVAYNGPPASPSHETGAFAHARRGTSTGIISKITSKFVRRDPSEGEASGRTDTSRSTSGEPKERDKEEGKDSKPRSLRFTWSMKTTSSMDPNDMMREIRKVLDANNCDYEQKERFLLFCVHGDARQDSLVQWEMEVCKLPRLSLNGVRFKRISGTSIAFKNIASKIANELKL
Chain of SIK(h) (P57059 whole entry): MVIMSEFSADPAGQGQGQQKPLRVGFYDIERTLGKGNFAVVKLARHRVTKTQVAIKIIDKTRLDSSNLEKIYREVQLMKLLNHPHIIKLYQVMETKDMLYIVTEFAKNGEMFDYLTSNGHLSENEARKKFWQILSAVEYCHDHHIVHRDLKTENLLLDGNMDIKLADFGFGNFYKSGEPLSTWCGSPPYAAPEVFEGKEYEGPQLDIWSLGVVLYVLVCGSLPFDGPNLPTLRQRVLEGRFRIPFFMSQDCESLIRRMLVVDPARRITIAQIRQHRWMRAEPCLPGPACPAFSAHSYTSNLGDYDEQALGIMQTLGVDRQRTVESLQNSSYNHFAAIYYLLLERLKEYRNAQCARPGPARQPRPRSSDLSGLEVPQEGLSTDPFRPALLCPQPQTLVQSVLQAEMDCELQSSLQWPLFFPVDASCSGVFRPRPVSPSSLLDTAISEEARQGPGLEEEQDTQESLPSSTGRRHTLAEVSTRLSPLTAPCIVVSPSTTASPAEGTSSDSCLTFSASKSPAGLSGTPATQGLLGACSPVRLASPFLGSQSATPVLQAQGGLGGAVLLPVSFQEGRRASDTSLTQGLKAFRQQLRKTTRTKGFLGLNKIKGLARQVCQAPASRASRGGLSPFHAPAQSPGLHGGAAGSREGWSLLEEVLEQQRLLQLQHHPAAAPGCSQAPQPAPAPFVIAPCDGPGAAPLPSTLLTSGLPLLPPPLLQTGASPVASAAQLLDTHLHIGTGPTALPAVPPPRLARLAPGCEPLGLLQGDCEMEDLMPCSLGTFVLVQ
Chain of FAK(h) (Q05397 whole entry): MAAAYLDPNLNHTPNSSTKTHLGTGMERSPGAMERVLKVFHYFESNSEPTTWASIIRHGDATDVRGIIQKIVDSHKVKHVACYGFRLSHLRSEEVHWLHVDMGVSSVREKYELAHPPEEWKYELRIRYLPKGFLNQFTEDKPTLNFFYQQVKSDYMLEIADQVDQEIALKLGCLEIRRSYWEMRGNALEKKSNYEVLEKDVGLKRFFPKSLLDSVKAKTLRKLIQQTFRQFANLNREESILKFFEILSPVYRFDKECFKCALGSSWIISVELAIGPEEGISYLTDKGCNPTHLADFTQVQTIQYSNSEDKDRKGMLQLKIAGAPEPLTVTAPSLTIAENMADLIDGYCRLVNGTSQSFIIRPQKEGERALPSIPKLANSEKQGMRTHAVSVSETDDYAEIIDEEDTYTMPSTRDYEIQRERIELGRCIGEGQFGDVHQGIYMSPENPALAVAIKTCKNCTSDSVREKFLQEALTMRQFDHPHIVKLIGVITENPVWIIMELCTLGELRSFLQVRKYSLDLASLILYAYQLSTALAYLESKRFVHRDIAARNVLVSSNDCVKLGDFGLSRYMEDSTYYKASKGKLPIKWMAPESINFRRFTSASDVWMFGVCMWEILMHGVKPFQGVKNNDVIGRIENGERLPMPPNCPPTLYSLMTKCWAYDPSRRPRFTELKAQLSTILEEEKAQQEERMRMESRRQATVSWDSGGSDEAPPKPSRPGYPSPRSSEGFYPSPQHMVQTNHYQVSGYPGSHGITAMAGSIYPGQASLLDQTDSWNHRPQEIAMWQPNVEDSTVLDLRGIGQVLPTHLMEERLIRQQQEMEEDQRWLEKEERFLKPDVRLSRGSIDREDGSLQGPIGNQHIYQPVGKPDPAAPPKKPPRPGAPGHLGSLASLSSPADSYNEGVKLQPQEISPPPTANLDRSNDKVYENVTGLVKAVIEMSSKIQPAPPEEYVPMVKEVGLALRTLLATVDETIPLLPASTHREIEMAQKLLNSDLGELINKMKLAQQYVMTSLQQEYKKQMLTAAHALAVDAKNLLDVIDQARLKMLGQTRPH

remaining activity at 2.5 µM (FAK(h)) | remaining activity at 2.5 µM (PAK3(h)) | remaining activity at 2.5 µM (DRAK1(h)) | remaining activity at 2.5 µM (EGFR(T790M, L858R)(h)) | remaining activity at 2.5 µM (BrSK1(h)) | remaining activity at 2.5 µM (SRPK1(h)) | remaining activity at 2.5 µM (SIK(h)) | remaining activity at 2.5 µM (EGFR(T790M)(h)) | remaining activity at 2.5 µM (MST3(h)) | remaining activity at 2.5 µM (STK33(h)) | remaining activity at 2.5 µM (IRAK1(h)) | remaining activity at 2.5 µM (cKit(D816H)(h)) | remaining activity at 2.5 µM (EphB1(h)) | remaining activity at 2.5 µM (CaMKIIδ(h)) | remaining activity at 2.5 µM (GRK5(h)) | remaining activity at 2.5 µM (MARK1(h)) | remaining activity at 2.5 µM (WNK3(h)) | remaining activity at 2.5 µM (MRCKα(h)) | remaining activity at 2.5 µM (PASK(h)) | remaining activity at 2.5 µM (Rsk1(r)) | Compound | other results
94% | 88% | 11% | 93% | 99% | 91% | 79% | 91% | 45% | 90% | 86% | 73% | 125% | 88% | 95% | 83% | 98% | 85% | 10% | 85% | CN1CCCC1CCNC(=O)c1cn2c3c(c(N4CCC(c5cnccn5)C4)c(F)cc3c1=O)Oc1cc3ccccc3cc1-2 (stereo not drawn) [Compound A-1] | inhibition at 2.5 µM (DRAK1(h)): > 80%; inhibition at 2.5 µM (PASK(h)): > 80%
102% | 91% | 117% | 99% | 107% | 99% | 94% | 114% | 110% | 102% | 102% | 92% | 75% | 96% | 99% | 95% | 120% | 98% | 100% | 110% | CC(=O)N1CCN(c2ccc3c(=O)c(C(=O)NCCN4CCCC4)c4n(C)c5ccccc5n4c3n2)CC1 [Compound B-1] | –
